Laboratory results as given in patent publication US20130337564A1, “Treatment of Pluripotent Cells” (Janssen Biotech, Inc., priority 2012, published 2013).
Where “and” joins values, the source holds several entries; their conditions need not be identical. Equal values may be shown once.

Tests used:
Format in all cases: cell-based
[1] = tested on: cells expressing pluripotency markers derived from human embryonic stem cells; assay: MTS viability (toxicity) assay of cells expressing pluripotency markers; set-up: Raw data (duplicate), first replicate / Average: unit not given here; details: for viability at 10 µM: Homo sapiens, Embryonic stem cell; for viability at 10 µM / % Control: viability of cells expressing pluripotency markers, relative to control; for Raw data (duplicate), first replicate / Raw data (duplicate), second replicate: MTS viability assay raw reading; for Raw data (duplicate), first replicate: replicate 1; for Raw data (duplicate), second replicate: replicate 2; for Average: average of duplicate MTS raw readings; for Average of raw data (duplicate), optical density at 490 nm / % Control (percentage viability of control): MTS on day 4; for % Control (percentage viability of control): relative to Activin A + Wnt3a positive control
Procedure, shortened: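 A GSK-3B inhibitor library was screened for toxicity to pluripotency-marker-expressing cells. Compound was given in DMEM:F12 with 0.5% FCS and 100 ng/ml Activin A for two days, then replaced by medium with 2% FCS and Activin A. On day 4, MTS absorbance at 490 nm gave viability as percent of Activin A plus Wnt3a control wells.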

[2] = tested on: Sox17 expression in human embryonic stem cells (H9 line); assay: High content screening assay: Sox17 protein expression (differentiation)
Procedure, shortened: (§1)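 H9 hESCs on MATRIGEL treated days 1-2 with 10 μM compound in DMEM:F12, 0.5% FCS, 100 ng/ml activin A; days 3-4 with 2% FCS plus activin A without compound. Fixed cells immunostained for Sox17 or HNF-3beta with Draq5 nuclear counterstain. Cell number and staining intensity quantified by high-content imaging, 12 fields/well.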

[3] = tested on: human embryonic stem cells (H9 line); assay: High content screening assay: cell number (proliferative response)
Procedure, shortened: as §1

[4] = cell number in the wells analysed for HNF-3b expression
[5] = cell number in the wells analysed for SOX-17 expression

In the case of `O=C1NC(=O)C(c2cn(CCCO)c3ncccc23)=C1c1ccccc1C(F)(F)F` [Compound 16, 3-[1-(3-Hydroxypropyl)-1H-pyrrolo[2,3-b]pyridin-3-yl]-4-[2-(trifluoromethyl)phenyl]-1H-pyrrole-2,5-dione], the viability at 10 µM [1] was 73.7%, the “Raw data (duplicate), first replicate” value [1] was 0.641 and the “Raw data (duplicate), second replicate” value [1] was 0.601. For the same molecule, the Average [1] was 0.621 and the fold induction at 10 µM ([2]; Homo sapiens, Embryonic stem cell, 10 μM test compound with 100 ng/ml activin A on days 1-2, H9, total intensity by IN Cell Analyzer, strong and moderate hits, read-out: SOX17 Expression, Fold over Wnt 3a/AA control) was 0.648.
With `O=C1NC(=O)C(c2cn(CCCO)c3ncccc23)=C1c1cccs1` [Compound 17, 3-[1-(3-Hydroxypropyl)-1H-pyrrolo[2,3-b]pyridin-3-yl]-4-thiophen-2-yl-1H-pyrrole-2,5-dione] the viability at 10 µM [1] was 99.1%, the “Raw data (duplicate), first replicate” value [1] was 0.803 and the “Raw data (duplicate), second replicate” value [1] was 0.782. The Average [1] was 0.792, the “Proliferative Response Total cells” value [3, 4] was 83 and the “Proliferative Response Total cells” value [3, 5] was 158. For the same molecule, the “SOX-17 Expression Total Intensity” value [2] was 14786632.
With `O=C1NC(=O)C(c2cn(CCCO)c3ncccc23)=C1c1cc(Cl)sc1Cl` [Compound 18, 3-(2,5-Dichlorothiophen-3-yl)-4-[1-(3-hydroxypropyl)-1H-pyrrolo[2,3-b]pyridin-3-yl]-1H-pyrrole-2,5-dione] the viability at 10 µM [1] was 69.9%, the “Raw data (duplicate), first replicate” value [1] was 0.637 and the “Raw data (duplicate), second replicate” value [1] was 0.554. For the same molecule, the Average [1] was 0.595, the “Proliferative Response Total cells” value [3, 4] was 4 and the “Proliferative Response Total cells” value [3, 5] was 3. The “SOX-17 Expression Total Intensity” value [2] was 0.
`COCCCn1cc(C2=C(c3ccccc3O)C(=O)NC2=O)c2cccnc21` [Compound 22, 3-(2-Hydroxyphenyl)-4-{1-[3-(methyloxy)propyl]-1H-pyrrolo[2,3-b]pyridin-3-yl}-1H-pyrrole-2,5-dione] was tested, and the viability at 10 µM [1] was 108%, the “Raw data (duplicate), first replicate” value [1] was 0.900 and the “Raw data (duplicate), second replicate” value [1] was 0.877. For the same molecule, the Average [1] was 0.888, the “Proliferative Response Total cells” value [3, 4] was 69 and the “Proliferative Response Total cells” value [3, 5] was 33. For the same molecule, the “SOX-17 Expression Total Intensity” value [2] was 2188847.
With `COc1ccccc1C1=C(c2cn(-c3ccc4ccccc4c3)c3ncccc23)C(=O)NC1=O` [Compound 23, 3-[2-(Methyloxy)phenyl]-4-(1-naphthalen-2-yl-1H-pyrrolo[2,3-b]pyridin-3-yl)-1H-pyrrole-2,5-dione] the viability at 10 µM [1] was 102%, the “Raw data (duplicate), first replicate” value [1] was 0.882 and the “Raw data (duplicate), second replicate” value [1] was 0.748. For the same molecule, the Average [1] was 0.815, the “Proliferative Response Total cells” value [3, 4] was 399 and the “Proliferative Response Total cells” value [3, 5] was 88. For the same molecule, the “SOX-17 Expression Total Intensity” value [2] was 7121122.
For `COc1ccccc1C1=C(c2cn(CCCNC(=O)OC(C)(C)C)c3ncccc23)C(=O)NC1=O` [Compound 26, 1,1-Dimethylethyl [3-(3-{4-[2-(methyloxy)phenyl]-2,5-dioxo-2,5-dihydro-1H-pyrrol-3-yl}-1H-pyrrolo[2,3-b]pyridin-1-yl)propyl]carbamate], the viability at 10 µM [1] was 76.4%, the “Raw data (duplicate), first replicate” value [1] was 0.568 and the “Raw data (duplicate), second replicate” value [1] was 0.709. The Average [1] was 0.639, the “Proliferative Response Total cells” value [3, 4] was 136 and the “Proliferative Response Total cells” value [3, 5] was 109. For the same molecule, the “SOX-17 Expression Total Intensity” value [2] was 15714170.
With `O=C1NC(=O)C(c2nn(CCCO)c3ccccc23)=C1c1cn(-c2cccnc2)c2ccc(Cl)cc12` [Compound 52, 3-(5-Chloro-1-pyridin-3-yl-1H-indol-3-yl)-4-[1-(3-hydroxypropyl)-1H-indazol-3-yl]-1H-pyrrole-2,5-dione] the viability at 10 µM [1] was 110%, the “Raw data (duplicate), first replicate” value [1] was 0.911 and the “Raw data (duplicate), second replicate” value [1] was 0.884. The Average [1] was 0.898, the “Average of raw data (duplicate), optical density at 490 nm” value (from here on “Average of raw data (duplicate)”) ([1]; cmpd conc 2.5 μM) was 0.7886 and the “Average of raw data (duplicate)” value ([1]; cmpd conc 5 μM) was 0.4156. The “Average of raw data (duplicate)” value ([1]; cmpd conc 10 μM) was 0.1448.
`CN(C)CCCn1c2c(c3ccccc31)C1=C(C(=O)NC1=O)N(c1cccc(Cl)c1)C2` [Compound 101, 4-(3-Chlorophenyl)-6-[3-(dimethylamino)propyl]-5,6-dihydropyrrolo[3′,4′:5,6]pyrido[3,4-b]indole-1,3(2H,4H)-dione] was tested, and the viability at 10 µM [1] was 100%, the “Raw data (duplicate), first replicate” value [1] was 0.791 and the “Raw data (duplicate), second replicate” value [1] was 0.768. The Average [1] was 0.779, the “Average of raw data (duplicate)” value ([1]; cmpd conc 2.5 μM) was 0.7987 and the “Average of raw data (duplicate)” value ([1]; cmpd conc 5 μM) was 0.7702. The “Average of raw data (duplicate)” value ([1]; cmpd conc 10 μM) was 0.1390.
In the case of `CCN1CCOCCOCCn2cc(c3ccccc32)C2=C(C(=O)NC2=O)c2cn(c3ccccc23)CC1` [Compound 103, 14-Ethyl-6,7,9,10,13,14,15,16-octahydro-12H,23H-5,26:17,22-di(metheno)dibenzo[k,q]pyrrolo[3,4-n][1,4,7,10,19]dioxatriacyclohenicosine-23,25(24H)-dione], the “Raw data (duplicate), first replicate” value [1] was 0.141, the “Raw data (duplicate), second replicate” value [1] was 0.162 and the Average [1] was 0.151. For the same molecule, the “Average of raw data (duplicate)” value ([1]; cmpd conc 2.5 μM) was 0.4737, the “% Control (percentage viability of control)” value ([1]; cmpd conc 2.5 μM) was 51.4% and the “Average of raw data (duplicate)” value ([1]; cmpd conc 5 μM) was 0.2618. For the same molecule, the “% Control (percentage viability of control)” value ([1]; cmpd conc 5 μM) was 19.7%, the “Average of raw data (duplicate)” value ([1]; cmpd conc 10 μM) was 0.1339 and the “% Control (percentage viability of control)” value ([1]; cmpd conc 10 μM) was 0.5%. For the same molecule, the “% Control” value [1] was 4.3%.
For `O=C1NC(=O)C(c2cn(CCOCCOCCO)c3ccccc23)=C1c1cn(CCO)c2ccccc12` [Compound 110, 3-[1-(2-Hydroxyethyl)-1H-indol-3-yl]-4-{1-[2-({2-[(2-hydroxyethyl)oxy]ethyl}oxy)ethyl]-1H-indol-3-yl}-1H-pyrrole-2,5-dione], the viability at 10 µM [1] was 112%, the “Raw data (duplicate), first replicate” value [1] was 0.948 and the “Raw data (duplicate), second replicate” value [1] was 0.764. The Average [1] was 0.856, the “Average of raw data (duplicate)” value ([1]; cmpd conc 2.5 μM) was 0.8272 and the “Average of raw data (duplicate)” value ([1]; cmpd conc 5 μM) was 0.7879. For the same molecule, the “Average of raw data (duplicate)” value ([1]; cmpd conc 10 μM) was 0.6747.
For `CN1CCN(C)CCn2cc(c3ccccc32)C2=C(C(=O)NC2=O)c2cn(c3ccccc23)CC1` [Compound 111, 8,11-Dimethyl-6,7,8,9,10,11,12,13-octahydro-20H-5,23:14,19-di(metheno)dibenzo[k,q]pyrrolo[3,4-n][1,4,7,10]tetraazacyclooctadecine-20,22(21H)-dione], the “Raw data (duplicate), first replicate” value [1] was 0.821, the “Raw data (duplicate), second replicate” value [1] was 0.841 and the Average [1] was 0.831. For the same molecule, the “Average of raw data (duplicate)” value ([1]; cmpd conc 2.5 μM) was 0.8169, the “% Control (percentage viability of control)” value ([1]; cmpd conc 2.5 μM) was 102.9% and the “Average of raw data (duplicate)” value ([1]; cmpd conc 5 μM) was 0.7718. For the same molecule, the “% Control (percentage viability of control)” value ([1]; cmpd conc 5 μM) was 96.1%, the “Average of raw data (duplicate)” value ([1]; cmpd conc 10 μM) was 0.6709 and the “% Control (percentage viability of control)” value ([1]; cmpd conc 10 μM) was 81.0%. The “% Control” value [1] was 108.0%.
`CN1CCOCCOCCN(C)CCn2cc(c3ccccc32)C2=C(C(=O)NC2=O)c2cn(c3ccccc23)CC1` [Compound 112, 12,21-Dimethyl-11,12,13,14,16,17,20,21,22,23-decahydro-1H,10H,19H-9,4:24,29-di(metheno)dibenzo[k,q]pyrrolo[3,4-n][1,4,7,10,19,22]dioxatetraazacyclotetracosine-1,3(2H)-dione] was tested, and the “Raw data (duplicate), first replicate” value [1] was 0.981, the “Raw data (duplicate), second replicate” value [1] was 1.056 and the Average [1] was 1.018. The “Average of raw data (duplicate)” value ([1]; cmpd conc 2.5 μM) was 0.8103, the “% Control (percentage viability of control)” value ([1]; cmpd conc 2.5 μM) was 101.9% and the “Average of raw data (duplicate)” value ([1]; cmpd conc 5 μM) was 0.1283. For the same molecule, the “Average of raw data (duplicate)” value ([1]; cmpd conc 10 μM) was 0.1283 and the “% Control” value [1] was 145.3%.
In the case of `O=C1NC(=O)C2=C1c1cn(c3ccccc13)CCOCCOCCN(Cc1cccs1)CCn1cc2c2ccccc21` [Compound 133, 14-(2-Thienylmethyl)-6,7,9,10,13,14,15,16-octahydro-12H,23H-5,26:17,22-di(metheno)dibenzo[k,q]pyrrolo[3,4-n][1,4,7,10,19]dioxatriazacyclohenicosine-23,25(24H)-dione], the “Raw data (duplicate), first replicate” value [1] was 0.823, the “Raw data (duplicate), second replicate” value [1] was 0.634 and the Average [1] was 0.728. The “Average of raw data (duplicate)” value ([1]; cmpd conc 2.5 μM) was 0.7939, the “% Control (percentage viability of control)” value ([1]; cmpd conc 2.5 μM) was 92.8% and the “Average of raw data (duplicate)” value ([1]; cmpd conc 5 μM) was 0.6661. The “% Control (percentage viability of control)” value ([1]; cmpd conc 5 μM) was 75.0%, the “Average of raw data (duplicate)” value ([1]; cmpd conc 10 μM) was 0.3010 and the “% Control (percentage viability of control)” value ([1]; cmpd conc 10 μM) was 24.1%. For the same molecule, the “% Control” value [1] was 98.1%.
In the case of `O=C1NC(=O)C2=C1c1cn(c3ccccc13)CCOCCOCCN(Cc1cccc3ccccc13)CCn1cc2c2ccccc21` [Compound 136, 14-(Naphthalen-1-ylmethyl)-6,7,9,10,13,14,15,16-octahydro-12H,23H-5,26:17,22-di(metheno)dibenzo[k,q]pyrrolo[3,4-n][1,4,7,10,19]dioxatriazacyclohenicosine-23,25(24H)-dione], the “Raw data (duplicate), first replicate” value [1] was 0.699 and 0.697, the “Raw data (duplicate), second replicate” value [1] was 0.679 and 0.695 and the Average [1] was 0.689 and 0.696. For the same molecule, the “Average of raw data (duplicate)” value ([1]; cmpd conc 2.5 μM) was 0.8432, the “% Control (percentage viability of control)” value ([1]; cmpd conc 2.5 μM) was 99.6% and the “Average of raw data (duplicate)” value ([1]; cmpd conc 5 μM) was 0.7935. For the same molecule, the “% Control (percentage viability of control)” value ([1]; cmpd conc 5 μM) was 92.7%, the “Average of raw data (duplicate)” value ([1]; cmpd conc 10 μM) was 0.8425 and the “% Control (percentage viability of control)” value ([1]; cmpd conc 10 μM) was 99.5%. The “% Control” value [1] was 86.3% and 87.3%.
